Patent publication EP0359745B1, “GROWTH FACTOR RECEPTOR” (IMPERIAL CANCER RESEARCH TECHNOLOGY LIMITED, priority 1987, dated 1988)
Non-standard residues stand in square brackets, D forms with d. Residues, ends and D or L forms follow the SMILES beside them.

How the values were obtained:
Mr 75000-85000 protein [1] = biological target: T1, Mr 75000-85000 protein (Mus musculus, UniProt P21729); experiment: ¹²⁵I-GRP affinity labelling (EGS cross-linking) of the Mr 75000-85000 protein in Swiss 3T3 cells, SDS-PAGE and scanning densitometry; format: binding; parameters: endogenous in cells; host or cells: Swiss 3T3 cells (confluent, quiescent, intact); conditions: 2.5 h; read-out: Mr 75000-85000 protein % of control
Procedure: (§1) After 2.5 h the cells were washed three times at 15°C with phosphate buffered saline (PBS) ad then incubated for 15 min at 15°C In 1 ml of binding medium, pH 7.4 In the presence of the appropriate cross-linking agent at the concentration indicated. The cross-linking agents (EGS, DSS, DSP and BSCOES) were dissolved in dimethyl sulphoxide immediately prior to use and were added to medium to give a final concentration of dimethylsulphoxide of 1-2%. The cultures were rapidly rinsed twice with PBS at 4°C and solubilized in 0.1ml of 2 x sample buffer 0.2 M Tris-HCl, pH 6.8, 10% (w/v) glycerol, 6% sodium dodecyl sulphate (SDS) (w/v) 4% β-mercaptoethanol (v/v) and 2 mM ethylenediaminetetraacetic acid. Samples were immediately heated at 100°C for 3-5 min and analysed by either one or two-dimensional gel electrophoresis.
Slab gel electrophoresis was performed using 7.5% acrylamide in the separating gel ad 5% in the stacking gel, ad 0.1% SDS (31). […] The Mr 75000-85000 band from autoradiograms was scanned using a Joyce-Loebl double beam densitometer and the areas under specific peaks were measured with a Hewlett-Packard digitizer.
Confluent cultures of 3T3 cells were incubated with 5 nM ¹²⁵I-GRP in the presence of varying concentrations of non-radioactive ligand at 15°C for 2.5 h. […] The cells were then solubilized and samples were analyzed by SDS-PAGE. […]

Swiss 3T3 cells [2] = experiment: GRP-induced DNA synthesis ([³H]thymidine incorporation) in Swiss 3T3 cells; format: cell-based, mouse
Procedure: (§2) Cell culture procedure (33), assays of DNA synthesis by ³H-thymidine incorporation (34) ad ¹²⁵I-GRP binding to intact cells (13) were performed as described previously.
Figure 3. Inhibition of GRP-induced DNA synthesis by [DPro²]spantide (A) and [DPhe⁵]spantide (D). […] After 40 hours DNA synthesis was estimated by [³H]thymidine incorporation into acid-precipitable material. […] Each point represents the mean of duplicate determinations. […] Values are expressed as a percentage of [³H]thymidine incorporation obtained in the absence of antagonists (100% = 8.6 x 10⁵ cpm per dish). Each point represents the mean of 4 determinations.

GRP receptor = biological target: T2, GRP receptor (Mus musculus, UniProt P21729); experiment: specific [¹²⁵I]GRP binding to intact Swiss 3T3 cells; conditions: read-out: Half-maximal inhibition of binding
T2 construct: endogenous in cells; host or cells: Swiss 3T3 cells (mouse fibroblasts)
Procedure: as §2
(§3) Figure 4. […] Values are expressed as percentage of the specific binding obtained in the absence of antagonists. […] Each point represents the mean of 3 determinations. […] Specific binding (B) is expressed in pmol/10⁶ cells and is shown in a double-reciprocal plot. Each point represents the mean of duplicate determinations. […] After 2 hours, the cultures were washed twice with binding medium then incubated in 1 ml containing 6 mM ethylene glycol bis (succinimidylsuccinate) (EGS) at pH 7.4 for 15 minutes at 15°C. The cultures were then washed twice with cold phosphate-buffered saline and solubilised in 0.1 ml of 2x sample buffer, then immediately heated at 100°C for 5 minutes and electrophoresed on a 10% polyacrylamide gel.

Swiss 3T3 cells [3] = experiment: GRP-stimulated rise in cytosolic Ca²⁺ concentration (fura-2 fluorescence) in Swiss 3T3 cells; format: cell-based, mouse; conditions: GRP (1 nM)
Procedure: (§4) Figure 5. […] Left: Effects of antagonists on [Ca²⁺]i. Quiescent Swiss 3T3 cells grown on Cytodex 2 beads were washed twice with DMEM and incubated for 10 minutes with fura-2 tetracetoxymethyl ester at 1 »m, then washed three times and suspended in 2 ml of electrolyte solution (6) in the fluorimeter at 37°C and stirred. Fluorescence was recorded continuously in a Perkins-Elmer LS5 luminescence spectrometer with an excitation wavelength of 335 nm and emission wavelength of 510 nm. After a period of equilibration, the following additions were made: solvent, S; antagonist A at 5 »m, A, 5 and 20 »m, A, 20; antagonist D at 5»m, D, 5. […] Values are expressed as percentages of the specific binding obtained with [¹²⁵I]EGF alone at 0.2 nM. The non-specific binding was obtained by the addition of 500-fold excess of unlabelled EGF. Each point represents the mean of 6 determinations.

Swiss 3T3 cells [4] = experiment: reversal of the inhibition of [¹²⁵I]EGF binding induced by GRP in Swiss 3T3 cells; format: cell-based, mouse; conditions: read-out: Half-maximal reversal of inhibition (of [¹²⁵I]EGF binding by GRP); [¹²⁵I]EGF 0.2 nM, GRP 3.6 nM, 1 hour, 37°C
Procedure: as §4

H69 cells = experiment: growth of SCLC cell line in serum-free medium (cell number, Coulter Counter); format: cell-based
Procedure: (§5) Figure 6. […] Stock cultures of cell lines H69, H128 and H417 were maintained in RPMI 1640 medium with 10% fetal bovine serum (heat inactivated) in a humidified atmosphere of 10% CO₂:90% air at 37°C. They were passaged every 7 days. Identical growth was obtained in the serum-free medium of RPMI 1640 supplemented with HITES (29) (hydrocortisone, 10 nM; insulin, 5 »g/ml; transferrin, 100 »g/ml; 17β-estradiol, 10 nM; sodium selenite, 30 nM) and 0.25% bovine serum albumin. […] Cell number was determined at intervals over 14 days in a Coulter Counter after disaggregation of cell clumps by syringing through 19G and 21G needles. Each point represents the mean of 3 determinations.
Figure 7. Inhibition of SCLC growth in vitro by [DPro²]spantide and [DPhe⁵]spantide is concentration-dependent. Cultures of H69 cells were washed twice with RPMI 1640 medium then incubated in serum-free medium (as in Figure 6) in the absence (●) or presence of various concentrations of [DPro²]spantide (o,A) and [DPhe⁵]spantide (△,D). Cell number was determined in a Coulter Counter after disaggregation of cell clumps by syringing through 19G and 21 G needles. Samples were incubated for 13 days, when the controls (inset) had achieved 10-fold increase in number, indicated by the arrow. Each point represents the mean (± standard deviation) of 5 determinations.

H128 = experiment: as above; format: cell-based; conditions: antagonist at 150 »m, reversed by washing
Procedure: as §5

H417 = experiment: as above; format: cell-based; conditions: antagonist at 150 »m, reversed by washing
Procedure: as §5

Mr 75000-85000 protein [5] = biological target: T1, Mr 75000-85000 protein; experiment: ¹²⁵I-GRP affinity labelling (EGS cross-linking) of the Mr 75000-85000 protein in Swiss 3T3 cells, SDS-PAGE and scanning densitometry; format: binding; parameters: endogenous in cells; host or cells: Swiss 3T3 cells (mouse fibroblasts)
Procedure: as §1
Slab gel electrophoresis was performed using 7.5% acrylamide in the separating gel ad 5% in the stacking gel, ad 0.1% SDS (31). After electrophoresis gels were stained, destained and dried down onto paper for autoradiography with Fuji X-ray film (Fuji Photo Film Co. Ltd. Japan). Dried gels were exposed to film for 4-8 days. Two-dimensional gel electrophoresis was performed as described by O'Farrell (32) using isoelectric focusing in the 1st dimension and SDS-polyacrylamide gel electrophoresis (SDS-PAGE) (8% polyacrylamide) in the second dimension. The samples prepared for isoelectric focusing containing 1.4% LKB ampholytes, pH 5-7, plus 0.6% LKD ampholytes, pH 3.5-10, 6M urea, and 2% Nonidet P-40. The Mr 75000-85000 band from autoradiograms was scanned using a Joyce-Loebl double beam densitometer and the areas under specific peaks were measured with a Hewlett-Packard digitizer.
After this time some cells were washed four times with cold (4°C) PBS supplemented with 1 mg/ml BSA, solubilized and total cell associated radioactivity was then determined in a gamma counter. […] The cells were then solubilized and samples were analyzed by SDS-PAGE. After electrophoresis, gels were dried, exposed to film and scanned as described in Materials and Methods. The areas under the individual peaks for the Mr 75000-85000 protein are shown as a function of the concentration of the unlabelled peptide and are expressed as a percentage of the control. […] The level of the Mr 75000-85000 protein expressed in arbitrary units is shown as a function of the concentration of the labelled ligand. Inset: autoradiogram of the gel used for scanning; the Mr 75000-85000 and 160,000 bands are indicated by arrows. All other experimental details were as described in Materials and Methods.
as §3
After the incubation period cultures were treated with 6 mM EGS as described in Materials and Methods. Each value is expressed as a percentage of the level of the Mr 75000-85000 protein obtained with no additons (-). Other experimental details are as described in Materials and Methods.

T1 sequence (P21729 whole entry): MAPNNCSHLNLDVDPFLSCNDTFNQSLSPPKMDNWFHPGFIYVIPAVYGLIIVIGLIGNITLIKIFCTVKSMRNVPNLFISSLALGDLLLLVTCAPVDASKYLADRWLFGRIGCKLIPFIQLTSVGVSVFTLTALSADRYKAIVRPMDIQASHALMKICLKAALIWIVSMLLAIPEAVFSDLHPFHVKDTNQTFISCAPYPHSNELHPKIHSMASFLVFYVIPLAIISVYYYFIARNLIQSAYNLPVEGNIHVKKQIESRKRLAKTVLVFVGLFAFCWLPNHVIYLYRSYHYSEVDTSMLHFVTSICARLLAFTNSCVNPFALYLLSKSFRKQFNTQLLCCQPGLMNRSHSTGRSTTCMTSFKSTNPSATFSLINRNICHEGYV
T2 sequence (P21729 whole entry): as above

Row | SMILES | remaining activity at 2 µM (Mr 75000-85000 protein [1]) | IC50 (Swiss 3T3 cells [2]; GRP 3.6 nM, 40 hours, Figure 3 right, read-out: Half-maximal inhibition of DNA synthesis) | concentration of GRP required to produce half-maximal stimulation of DNA synthesis (Swiss 3T3 cells [2]; antagonist at 20 »m, Figure 3 left) | IC50 (GRP receptor) | rise in [Ca²⁺]i caused by the addition of GRP (Swiss 3T3 cells [3]; antagonist at 5 »m) | rise in [Ca²⁺]i caused by the addition of GRP (Swiss 3T3 cells [3]; antagonist at 20 »m) | EC50 (Swiss 3T3 cells [4]) | rate of growth in serum-free medium (H69 cells; H69, antagonist at 150 »m, reversed by washing) | IC50 (H69 cells; H69 cells, serum-free medium, 13 days, read-out: half-maximal effect (inhibition of growth)) | rate of growth in serum-free medium (H128) | rate of growth in serum-free medium (H417) | IC50 (Mr 75000-85000 protein [5]; read-out: Half-maximal inhibition (affinity-labelling of the Mr 75000-85000 protein)) | cross-linking of ¹²⁵I-GRP / level of the Mr 75000-85000 protein (in words) (Mr 75000-85000 protein [5]; summary of Table 1, saturating concentrations of the other mitogens) | Mr 75000-85000 protein % of control (Mr 75000-85000 protein [5]; ¹²⁵I-GRP (0.5 nM), 15°C, 2.5 h, 6 mM EGS, additions: GRP 360 nM, GRP (14-27) 30 nM, bombesin 30 nM, litorin 92 nM, neuromedin B 220 nM, [D-Arg¹,D-Pro²,D-Trp^7,9,Leu¹¹] substance P 100 »M, GRP (1-16) 3230 nM, PDGF 5 nM, EGF 83 nM, vasopressin 1000 nM, insulin 1 »g/ml, phorbol 12,13 dibutyrate 2000 nM, substance P 740 nM, substance K 880 nM, somatostatin 610 nM, neurotensin 600 nM)
1 | CCCC(=O)O[C@@H]1[C@@H](C)[C@@]2(O)[C@@H](C=C(CO)C[C@]3(O)C(=O)C(C)=C[C@@H]23)[C@@H]2C(C)(C)[C@]12OC(=O)CCC [Phorbol 12,13-dibutyrate] | 99% | – | – | – | – | – | – | – | – | – | – | – | – | –
2 | CC(C)C[C@H](NC(=O)[C@H](CC(C)C)NC(=O)[C@@H](Cc1c[nH]c2ccccc12)NC(=O)[C@H](Cc1ccccc1)NC(=O)[C@@H](Cc1c[nH]c2ccccc12)NC(=O)[C@H](CCC(N)=O)NC(=O)[C@H](CCC(N)=O)NC(=O)[C@@H]1CCCN1C(=O)[C@H](CCCCN)NC(=O)[C@H]1CCCN1C(=O)[C@H](N)CCCNC(=N)N)C(N)=O [[DPro²]spantide, D-Arg-D-Pro-Lys-Pro-Gln-Gln-D-Trp-Phe-D-Trp-Leu-Leu-NH₂] (H-[dR][dP]KPQQ[dW]F[dW]LL-NH2) | – | 118 µM | only a slight effect | 14 µM | not | prevented | 30 µM | abolished | 82 µM | abolished | abolished | 20 µM | markedly inhibited | 9.7 % of control
